Laboratory results published in patent US20100093706A1, “MULTIMEDIATOR TRANSPORTER INHIBITORS FOR USE IN TREATMENT OF CENTRAL NERVOUS SYSTEM DISORDERS” (priority 2006, published 2010).
pEC50: −log10 of the molar value.

Tests used:
Histamine H1 receptor = Histamine H1 receptor (Homo sapiens, UniProt P35367); assay: in vitro selectivity panel, Histamine H1 receptor; type: binding
Procedure: (§1) The in vitro selectivity profile of two representative subject compounds, (3) and (1), are also tested against a panel of other receptors, including the M1 receptor, Histamine H1 receptor, sigma-1 (σ1) receptor, β1-adrenergic receptor, and dopamine D2 receptor. Representative results are listed below in Table III: […]

[1] = target: NET (norepinephrine transporter or SLC6A2) (Homo sapiens, UniProt P23975); assay: cell-based; conditions: own compounds tested as racemic mixtures of enriched diastereomers
NET (norepinephrine transporter or SLC6A2), sequence (P23975 whole entry): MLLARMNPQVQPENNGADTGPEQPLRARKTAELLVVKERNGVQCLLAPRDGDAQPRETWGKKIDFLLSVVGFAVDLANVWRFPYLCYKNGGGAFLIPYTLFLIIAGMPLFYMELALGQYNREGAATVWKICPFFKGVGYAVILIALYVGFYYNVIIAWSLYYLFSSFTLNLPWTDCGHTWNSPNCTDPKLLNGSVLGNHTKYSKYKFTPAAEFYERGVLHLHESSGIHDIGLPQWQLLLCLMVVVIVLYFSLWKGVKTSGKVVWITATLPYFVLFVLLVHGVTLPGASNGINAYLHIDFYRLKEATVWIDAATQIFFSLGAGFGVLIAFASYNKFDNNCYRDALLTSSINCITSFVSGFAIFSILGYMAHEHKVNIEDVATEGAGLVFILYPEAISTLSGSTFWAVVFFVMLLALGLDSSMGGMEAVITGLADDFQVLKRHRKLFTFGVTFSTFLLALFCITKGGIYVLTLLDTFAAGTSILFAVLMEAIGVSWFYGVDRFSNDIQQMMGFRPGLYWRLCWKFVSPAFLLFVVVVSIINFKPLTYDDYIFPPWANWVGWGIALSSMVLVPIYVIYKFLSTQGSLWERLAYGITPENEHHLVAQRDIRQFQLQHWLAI

NET (h) = target: T1, NET (h) (Homo sapiens, UniProt P23975); assay: cell-based; type: cell-based; conditions: human; nM; read-out: NET (h) in vitro functional uptake
T1 construct: expressed in transfected cells; host or cells: MDCK
T1 sequence (P23975 whole entry): as above
Procedure: (§2) Functional activity of the compounds was determined in vitro in cellular assays using recombinant human cell lines.

DAT (h) = target: T2, DAT (h) (Homo sapiens, UniProt Q01959); assay: cell-based; type: cell-based; conditions: human; nM; read-out: DAT (h) in vitro functional uptake
T2 construct: expressed in transfected cells
T2 sequence (Q01959 whole entry): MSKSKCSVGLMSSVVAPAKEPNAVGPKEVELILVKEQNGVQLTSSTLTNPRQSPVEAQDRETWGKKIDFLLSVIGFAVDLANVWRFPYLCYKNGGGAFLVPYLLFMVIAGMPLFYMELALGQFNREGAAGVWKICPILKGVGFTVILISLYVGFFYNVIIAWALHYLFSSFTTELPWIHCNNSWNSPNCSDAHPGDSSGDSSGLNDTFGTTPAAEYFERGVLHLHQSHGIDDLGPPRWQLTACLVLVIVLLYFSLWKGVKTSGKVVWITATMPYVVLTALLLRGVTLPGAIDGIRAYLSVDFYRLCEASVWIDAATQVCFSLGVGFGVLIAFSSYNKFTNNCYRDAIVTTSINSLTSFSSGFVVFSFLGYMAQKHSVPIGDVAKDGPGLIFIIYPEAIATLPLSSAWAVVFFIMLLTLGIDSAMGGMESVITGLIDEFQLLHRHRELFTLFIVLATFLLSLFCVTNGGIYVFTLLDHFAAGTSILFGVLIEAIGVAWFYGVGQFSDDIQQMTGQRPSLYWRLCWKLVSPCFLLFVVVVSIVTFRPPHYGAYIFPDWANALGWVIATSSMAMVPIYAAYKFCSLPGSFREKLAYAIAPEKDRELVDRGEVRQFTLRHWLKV
Procedure: as §2

rats = assay: forced swim test (behavioral despair assay) in rats; type: in vivo; conditions: rat
Procedure: In vivo efficacy of several illustrative inhibitors of the instant invention, (1), (3), and (4), were measured using standard forced swim test model using rat. The objective of this study was to assess the antidepressant effects of test compounds in the behavioral despair assay in rats using a modification of a method described by Porsolt R. D. et al. in Behavioural despair in rats: a new model sensitive to antidepressant treatment, Eur. J. Pharmacol., 47: 379-391, 1978; Porsolt et al., Nature 266: 730-732, 1977; and Porsolt et al., in Psychopharmacology, Olivier, Mos, and Slangen (eds) Birkhäuser Verlag, Basel, pp. 137-159, 1991. Briefly, when mice (or rats) are forced to swim in a cylinder from which no escape is possible, they readily adopt a characteristic immobile posture and make no further attempts to escape except for small movements needed to keep floating. The immobility is considered by some to reflect a “depressive mood” (Porsolt et al., Nature 266: 730-732, 1977) in which animals cease to struggle to escape the aversive situation. The immobility induced by the procedure is influenced by a wide variety of antidepressants (Porsolt et al., in Psychopharmacology, Olivier, Mos, and Slangen (eds) Birkhauser Verlag, Basel, pp. 137-159, 1991) and has a good predictive validity in that it detects antidepressants with different mechanisms of action (TCAs, SSRIs, MAOIs, and other atypical ones). The test is sensitive to muscle-relaxant (benzodiazepines) and sedative (neuroleptics) effects, leading to enhanced immobility (Porsolt et al., supra).
In a typical experiment, animals are placed singly into a cylinder (e.g. 46×30 cm) containing fresh water at about 20° C. for 6 minutes. The activity (or immobility) of the animal is measured by an observer minute by minute. In more detail, the animals were preconditioned in a pretest session, where the rats were individually forced to swim inside a vertical plexiglass cylinder containing water maintained at 19-20° C. After 15 minutes in the water, they were allowed to dry for […] in a heated enclosure. Twenty-four hours later, the compounds were administered either intraperitoneally or orally to the animals. One hour after administration of the test compound, animals were put back into the cylinder containing water. The total duration of immobility was measured during the last 4 minutes of a 6 minute test.
The results are expressed as the percentage of variation of the total duration of immobility calculated from the mean value of the vehicle-treated group (% variation=[(immobility duration of vehicle−immobility duration of test compound)/(immobility duration of vehicle)]×100%).
In order to measure the in vivo efficacy of inhibiting DAT in rats using an inhibitor of the instant invention, one test inhibitor ((1), (3), or (4)) was injected i.p. as racemic mixtures of diastereomers into the animals, at various-doses (e.g. 7.5 and […]). Sibutramine (2.0 and 2.5 mg/kg), Bupropion (7.5 and 10 mg/kg), and Imipramine (30 mg/kg) were similarly administered as controls. […] Asterisks indicate highly statistical significant results.
A fourth inhibitor, (6) was administered p.o. as a racemic mixture of diastereomers at either 35 or 75 mg/kg. Sibutramine (5.0 and 3.75 mg/kg), Bupropion (30 and 40 mg/kg), and Imipramine (100 mg/kg) were similarly administered as controls.
Similarly, (1) was also administered p.o. as a racemic mixture of enriched (95:5) diastereomer at either 35 or 75 mg/kg. […]

DAT (r) = DAT (r) (Rattus norvegicus, UniProt P23977); assay: in vitro functional uptake, rat DAT; type: cell-based
DAT (r), sequence (P23977 whole entry): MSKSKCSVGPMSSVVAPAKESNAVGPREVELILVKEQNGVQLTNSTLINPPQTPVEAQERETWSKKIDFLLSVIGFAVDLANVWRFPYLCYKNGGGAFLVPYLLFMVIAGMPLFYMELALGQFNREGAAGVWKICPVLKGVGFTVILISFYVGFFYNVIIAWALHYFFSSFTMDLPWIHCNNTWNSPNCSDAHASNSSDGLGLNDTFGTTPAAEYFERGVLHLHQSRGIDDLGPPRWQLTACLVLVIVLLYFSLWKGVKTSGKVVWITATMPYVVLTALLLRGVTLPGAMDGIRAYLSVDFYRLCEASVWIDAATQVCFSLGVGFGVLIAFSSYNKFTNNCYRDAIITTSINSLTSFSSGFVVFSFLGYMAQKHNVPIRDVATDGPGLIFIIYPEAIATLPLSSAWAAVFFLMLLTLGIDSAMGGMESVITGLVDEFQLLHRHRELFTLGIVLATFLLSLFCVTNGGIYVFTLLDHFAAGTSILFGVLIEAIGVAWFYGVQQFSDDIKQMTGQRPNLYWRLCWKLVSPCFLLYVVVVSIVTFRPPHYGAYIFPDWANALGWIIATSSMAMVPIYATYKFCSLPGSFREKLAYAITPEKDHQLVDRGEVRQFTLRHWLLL

Sprague-Dawley rats = assay: 7 day multidose oral dosing toxicology study; type: in vivo, rat
Source text: The representative results are listed below in Table VI.

rat = assay: acute single-dose toxicology in rat; type: in vivo
Procedure: An in vivo evaluation was carried out to determine the maximum tolerated dose of numerous test compounds in rat. The compounds were administered i.v., and the animals were then observed for 72 hours.
Briefly, experimental rats, in groups of 5 animals, were administered with various doses of respective inhibitors (e.g. 30, 90, 120, and 200 mg/kg), and the observed toxicological effects were recorded.

sigma-1 (σ1) receptor = sigma-1 (σ1) receptor (Homo sapiens, UniProt Q99720); assay: in vitro selectivity panel, sigma-1 receptor; type: binding
sigma-1 (σ1) receptor, sequence (Q99720 whole entry): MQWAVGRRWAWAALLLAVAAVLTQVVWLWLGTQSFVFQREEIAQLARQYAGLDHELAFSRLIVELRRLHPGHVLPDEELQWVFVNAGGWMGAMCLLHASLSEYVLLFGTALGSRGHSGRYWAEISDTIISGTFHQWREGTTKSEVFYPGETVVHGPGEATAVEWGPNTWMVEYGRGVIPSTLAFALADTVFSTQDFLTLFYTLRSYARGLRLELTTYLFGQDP
Procedure: as §1

in vivo = conditions: rat
5-HT = 5-HT (Homo sapiens, UniProt P31645); assay: cell-based; conditions: own compounds tested as racemic mixtures of enriched diastereomers
5-HT, sequence (P31645 whole entry): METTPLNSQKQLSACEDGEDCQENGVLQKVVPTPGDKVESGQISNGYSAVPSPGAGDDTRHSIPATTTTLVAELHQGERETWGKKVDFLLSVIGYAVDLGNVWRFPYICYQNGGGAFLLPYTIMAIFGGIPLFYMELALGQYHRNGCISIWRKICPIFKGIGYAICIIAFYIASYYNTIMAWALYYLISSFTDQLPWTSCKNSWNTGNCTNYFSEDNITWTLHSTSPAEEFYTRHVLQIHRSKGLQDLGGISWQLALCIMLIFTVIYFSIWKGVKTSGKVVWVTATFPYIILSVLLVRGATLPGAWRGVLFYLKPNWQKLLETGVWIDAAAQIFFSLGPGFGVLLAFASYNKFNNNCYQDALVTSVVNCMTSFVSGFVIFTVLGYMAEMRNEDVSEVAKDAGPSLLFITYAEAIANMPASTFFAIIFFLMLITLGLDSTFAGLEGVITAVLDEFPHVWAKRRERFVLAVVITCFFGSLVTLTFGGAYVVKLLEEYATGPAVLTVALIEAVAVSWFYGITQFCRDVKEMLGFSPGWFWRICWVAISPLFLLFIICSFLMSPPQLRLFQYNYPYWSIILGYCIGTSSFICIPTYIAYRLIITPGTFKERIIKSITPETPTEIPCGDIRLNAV

dopamine D2 receptor = dopamine D2 receptor (Homo sapiens, UniProt P14416); assay: in vitro selectivity panel, dopamine D2 receptor; type: binding
dopamine D2 receptor, sequence (P14416 whole entry): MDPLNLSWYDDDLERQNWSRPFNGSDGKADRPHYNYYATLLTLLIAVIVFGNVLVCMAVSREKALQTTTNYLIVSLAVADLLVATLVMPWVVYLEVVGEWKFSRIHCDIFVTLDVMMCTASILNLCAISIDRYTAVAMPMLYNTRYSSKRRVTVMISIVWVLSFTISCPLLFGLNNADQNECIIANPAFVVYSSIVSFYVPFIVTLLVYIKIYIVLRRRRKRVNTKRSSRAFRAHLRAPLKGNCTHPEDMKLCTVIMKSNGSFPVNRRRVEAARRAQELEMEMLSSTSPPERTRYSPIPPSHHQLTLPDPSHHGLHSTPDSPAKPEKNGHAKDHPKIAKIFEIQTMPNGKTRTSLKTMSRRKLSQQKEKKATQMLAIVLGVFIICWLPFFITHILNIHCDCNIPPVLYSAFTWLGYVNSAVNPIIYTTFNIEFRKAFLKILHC
Procedure: as §1

Histamine H1 receptor, sequence (P35367 whole entry): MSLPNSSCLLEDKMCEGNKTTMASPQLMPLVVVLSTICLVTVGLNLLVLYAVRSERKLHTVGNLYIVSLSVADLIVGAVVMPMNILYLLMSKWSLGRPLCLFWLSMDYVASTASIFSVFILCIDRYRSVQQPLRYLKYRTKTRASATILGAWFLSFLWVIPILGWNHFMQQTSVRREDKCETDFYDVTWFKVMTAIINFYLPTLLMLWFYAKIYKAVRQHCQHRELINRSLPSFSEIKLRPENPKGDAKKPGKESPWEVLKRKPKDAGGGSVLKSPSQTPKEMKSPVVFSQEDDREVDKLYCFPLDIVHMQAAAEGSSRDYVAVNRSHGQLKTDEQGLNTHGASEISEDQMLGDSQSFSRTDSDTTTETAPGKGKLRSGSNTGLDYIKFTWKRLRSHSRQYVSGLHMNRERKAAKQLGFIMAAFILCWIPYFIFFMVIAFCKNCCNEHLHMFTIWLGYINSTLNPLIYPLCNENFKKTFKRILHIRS

Structure (SMILES): CC1CCN(CC2(c3ccc(Cl)cc3)CCC2)CC1COc1ccc(C(F)(F)F)cc1 (stereo not drawn) [(1)]
- Histamine H1 (nM)h (Histamine H1 receptor): 5000 nM
- IC50 [1]: 175 nM
- EC50 (NET (h)): 1000 nM
- EC50 (DAT (h)): 1 nM
- forced swim test efficacy versus commercial drugs (FIG. 1) (rats; i.p., racemic mixtures of diastereomers): performed equally well, if not better, than the commercial drugs Sibutramine, Bupropion, and Imipramine
- forced swim test efficacy versus commercial drugs (FIG. 2, FIG. 3) (rats; p.o., 35 or 75 mg/kg): performed equally well, if not better, than the commercial drugs Sibutramine, Bupropion, and Imipramine
- pEC50 (DAT (r)): 7.10
- 7 day multidose oral toxicology, symptoms (Sprague-Dawley rats; Sprague-Dawley rats n = 6 (3M/3F), oral 100 mg/kg/day, 100 mg/kg/day): did not display any significant symptoms
- 7 day multidose oral toxicology, self-mutilation (number of animals) (Sprague-Dawley rats; n = 6, oral 200 mg/kg/day): 1 self-mutilation
- 7 day multidose oral toxicology, self-mutilation (number of animals) (Sprague-Dawley rats; n = 6, oral 400 mg/kg/day): 3 self-mutilation
- acute single dose toxicology, observed symptoms (rat; rat (n = 5), 200 mg/kg, i.v., observed 72 hours): decreased grip strength, and slight depression
- acute single dose toxicology, observed symptoms (rat; rat, doses below 120 mg/kg): no significant observed symptoms
- Sigma σ1 (nM)h (sigma-1 (σ1) receptor): 5000 nM
- Vd (in vivo): 6 L/kg
- half-life (in vivo; iv): 3.33 h
- bioavailability (in vivo; po): 40%
- IC50 (5-HT): 1200 nM
- D2 (nM)h (dopamine D2 receptor): 1000 nM
